{
  "source": "paper PMC7465886",
  "about": "“4-(N-Alkyl- and -Acyl-amino)-1,2,4-triazole-3-thione Analogs as Metallo-β-Lactamase Inhibitors: Impact of 4-Linker on Potency and Spectrum of Inhibition” (Biomolecules, 2020)",
  "key": {"[1]": {"molecular_target": "T1, VIM-2 (Escherichia coli, UniProt Q5U7L7)", "T1 construct": "made in house; host or cells: E. coli BL21(DE3) derivative, pET-9a", "experiment": "MBL inhibition, reporter substrate method, VIM-2", "assay_type": "biochemical", "conditions": "hydrazine and hydrazide series; read-out: Ki Value VIM-2", "procedure": "Compounds were prepared in DMSO at a final concentration of 50 mM prior to dilution in the assay buffer. The reaction rate was measured as the variation of absorbance observed upon substrate hydrolysis in a UV-Vis spectrophotometer or microplate reader at a wavelength of 300 nm (imipenem, meropenem), 260 nm (cefotaxime), or 482 nm (nitrocefin) and in the presence of a purified MBL enzyme (such as VIM-1, VIM-2, VIM-4, NDM-1, and IMP-1, at a final concentration ranging from 1 to 70 nM).\nThese enzymes were overproduced in derivatives of E. coli BL21(DE3) carrying a pET-9 a (IMP-1, VIM-1, VIM-2, and VIM-4) or pET-15 b (NDM-1) vector into which the metallo-β-lactamase-encoding open reading frame was cloned. Bacterial strains were grown in the auto-inducing medium, ZYP-5052, supplemented with 50 μg/mL kanamycin for 24 h at 37 °C [38]. IMP-1, VIM-1, VIM-2, and VIM-4 were purified by ion-exchange and gel filtration chromatography using an AKTA Purifier platform (GE Healthcare, Uppsala, Sweden) as previously described. NDM-1 (residues 37-270) was produced as an amino-terminal 6 xHis-tag fusion protein and was purified using affinity chromatography. After growth for 26 h at 25 °C, bacterial cells were harvested by centrifugation (10,000× g, 30 min, 4 °C), resuspended in 10 mM HEPES buffer (pH 7.5) containing 0.15 M NaCl (buffer A) in one-fifth of the original culture volume, and lysed by sonication. Cellular debris was removed by centrifugation (12,000× g, 40 min, 4 °C). The clarified sample was loaded on a HisTrap HP column (bed volume, 5 mL; GE Healthcare), followed by a wash step (25 mL) with buffer A containing 20 mM imidazole. Proteins were eluted using buffer A containing 350 mM imidazole. The resulting protein sample was desalted (HiPrep 26/10 Desalting column, GE Healthcare) using 20 mM triethanolamine (pH 7.2) supplemented with 50 μM ZnSO4 and concentrated using an Amicon Ultra-15 (MW cut-off, 10 kDa; Millipore, Burlington, MA, USA). The concentrated sample was loaded on a Superdex 75 prep grade column (XK16/100 column; bed volume, 140 mL; GE Healthcare) and the proteins eluted with buffer A containing 50 μM ZnSO4. The active fractions were pooled and stored at −20 °C. The purity of the protein preparations was estimated >95% by SDS-PAGE analysis. The authenticity of the enzyme preparations was confirmed by electron spray ionization mass spectrometry, as previously described.\nThe inhibition constants (Ki) were determined on the basis of a model of competitive inhibition by analyzing the dependence of the ratio v0/vi (v0, hydrolysis velocity in the absence of inhibitor; vi, hydrolysis velocity in the presence of inhibitor) as a function of [I] as already described. The slope of the plot of v0/vi vs. [I], which corresponds to Km^S/(Km^S + [S])Ki (where Km^S is the Km value of the reporter substrate and [S] its concentration in the reaction mixture) and allowed the calculation of the Ki value. Alternatively, a Dixon plot analysis was carried out by measuring the initial hydrolysis rates in the presence of variable concentrations of inhibitor and substrate. This allowed Ki values to be determined and supported the hypothesis that the various compounds behaved as competitive inhibitors of the various tested enzymes. The assays were performed in triplicate."}, "[2]": {"molecular_target": "T1, VIM-2", "experiment": "Isothermal titration calorimetry of binding to VIM-2", "procedure": "ITC titrations were performed on a MicroCal ITC200 (GE-Malvern) equipped with a 200 µL Hastelloy sample cell and an automated 40 µL glass syringe rotating at 1000 rpm. VIM-2 in 10 mM Hepes-NaOH, 0.15 M NaCl, 50 µM ZnSO4, pH 7.5 was diluted to the desired concentration with the same buffer and was brought to a DMSO concentration identical to that of the injected compound. The tested compound was solubilized in DMSO at 20 mM concentration and was diluted to 200 µM with the enzyme buffer, resulting in a final DMSO concentration of 1%.\nIn a standard experiment, VIM-2 (19 µM) was titrated by one initiating injection (0.5 µL) followed by 19 injections (2 µL) of compound (200 µM) at an interval of 150 s. Dilution heat of compound injections into buffer, at the corresponding DMSO concentration, were subtracted from raw data. The data so obtained were fitted via nonlinear least squares minimization method to determine binding stoichiometry (n), association constant (Ka), and change in enthalpy of binding (∆H°b) using ORIGIN 7 software v.7 (OriginLab, Northampton, MA, USA). In the fitting procedure, the compound concentration was lowered in order to provide n around 1 and to take compound solubility into account under ITC conditions. The Gibbs free energy of binding, ∆G°b, was calculated from Ka (∆G°b = −RT ln Ka) and the entropic term, T∆S°b, was derived from the Gibbs–Helmholtz equation using the experimental ∆H°b value (∆G°b = ∆H°b − T∆S°b)."}, "[3]": {"molecular_target": "T2, CphA (Aeromonas hydrophila, UniProt P26918)", "T2 construct": "made in house", "T2 sequence (P26918 28-254)": "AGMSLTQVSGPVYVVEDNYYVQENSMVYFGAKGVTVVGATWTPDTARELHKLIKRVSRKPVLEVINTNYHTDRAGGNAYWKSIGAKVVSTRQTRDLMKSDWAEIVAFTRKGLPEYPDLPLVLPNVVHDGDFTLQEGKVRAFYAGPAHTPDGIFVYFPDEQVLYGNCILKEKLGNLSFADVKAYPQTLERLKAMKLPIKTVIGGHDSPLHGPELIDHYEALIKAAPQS", "experiment": "MBL inhibition, CphA (imipenem hydrolysis)", "assay_type": "biochemical", "conditions": "read-out: Percentage of Inhibition at 100 μM Inhibitor, CphA", "procedure": "Compounds were prepared as 10 mM solutions in DMSO before dilution with appropriate buffers. Buffers were 25 mM Hepes pH 7.5 for CphA or 25 mM Hepes pH 7.5, 50 µM ZnCl2 for L1. The rates in the absence of inhibitor were not modified by addition of 1% DMSO. CphA and L1 enzymes, purified as previously described, were used at concentrations between 0.2 and 0.8 nM, respectively. The enzyme and the inhibitor (100 µM) were pre-incubated for 30 min in a volume of 495 µL at room temperature. The hydrolysis of a solution of 100 µM imipenem for CphA was monitored by following the absorbance variation at 300 nm using a Specord 50 PLUS spectrophotometer (Analytik Jena, Jena, Germany). For L1, the reporter substrate was nitrocefin (100 µM). The enzyme activity was measured by following the absorbance variation at 482 nm. The substrate hydrolysis was done at 30 °C. The activity was tested by measuring the initial rates in three samples without inhibitor that allowed to determine the percentage of residual β-lactamase activity in the presence of inhibitors. […] The Hanes linearization of the Henri–Michaelis equation was used, and Ki was calculated on the basis of the following equation, v = (Vmax.S)/[S + Km(1 + I/Ki)]. […]"}},
  "note": "pKd, pKi: −log10 of the molar value.",
  "data": [
    {"smiles": "O=C(O)c1ccccc1CNn1c(-c2ccccc2)n[nH]c1=S", "note": "[Compound 1]", "values": [
      {"measurement": "pKi", "setting": "[1]", "value": 5.85},
      {"measurement": "pKd", "setting": "[2]", "value": 6.45},
      {"measurement": "Ka", "setting": "[2]; 25 °C", "value": "2.8 ± 0.4", "unit": "µM⁻¹"},
      {"measurement": "n, stoichiometry of binding", "setting": "[2]; 25 °C", "value": "1.01 ± 0.01"},
      {"measurement": "∆H°b", "setting": "[2]; 25 °C", "value": "-6.3 ± 0.1", "unit": "kcal/mol"},
      {"measurement": "∆G°b", "setting": "[2]; 25 °C, calculated from Ka", "value": -8.8, "unit": "kcal/mol"},
      {"measurement": "T∆S°b", "setting": "[2]; 25 °C, from Gibbs–Helmholtz equation", "value": 2.5, "unit": "kcal/mol"},
      {"measurement": "inhibition at 100 µM", "setting": "[3]", "value": 60, "unit": "%"}
    ]}
  ]
}
